pEC50: −log10 of the molar value.
Tested on: not listed separately
Test: Half reaction time was determined
Format: ADME
Conditions: mouse

SMILES	half-life [min]
Br.Cc1ccc(C(=O)Cn2c3c(sc2=N)CCCC3)cc1	240
Br.N=c1sc2c(n1CC(=O)c1ccc([N+](=O)[O-])cc1)CC1CCCCC1C2 (stereo unspecified)	300
Br.N=c1sc2c(n1CC(=O)c1ccc([N+](=O)[O-])cc1)CCCC2	360
Br.COc1ccc(C(=O)C(C#N)n2c3c(sc2=N)CCCC3)cc1 (stereo unspecified)	720

Species: Mus musculus
Test: Effective concentration required to protect mouse embryo cortical neurons against a DNA-damaging agent
Format: functional
Conditions: not given

SMILES	pEC50
O=[N+]([O-])c1ccc(-c2cn3c4c(sc3n2)CCCC4)cc1	~7.52
Br.COc1ccc(C(=O)C(C#N)n2c3c(sc2=N)CCCC3)cc1 (stereo unspecified)	~7.52

From ChEMBL document CHEMBL1141906, “Novel cyclized Pifithrin-alpha p53 inactivators: synthesis and biological studies” (Bioorg Med Chem Lett, 2005)
